In US10556888B2, “Pyrazole compounds or salts thereof, preparation methods therefor, herbicidal compositions and use thereof” (QINGDAO KINGAGROOT CHEMICAL COMPOUNDS CO., LTD, priority 2015, dated 2020):

Columns and labels:
[1] = system: main crop (wheat, corn, rice, soybean, cotton, oilseed, millet and sorghum); experiment: Post-emergence test experiment, main crops (Table 2); format: in vivo; set-up: key: Level 10: completely dead; Level 9: above 90% growth inhibition rate; Level 8: above 80% growth inhibition rate; Level 7: above 70% growth inhibition rate; Level 6: above 60% growth inhibition rate; Level 5: above 50% growth inhibition rate; Level 4: above 30% growth inhibition rate; Level 3: above 20% growth inhibition rate; Level 2: above 10% growth inhibition rate; Level 1: above 1-10% growth inhibition rate; Level 0: no effect; conditions: 3 weeks after spraying, greenhouse
Protocol: (§1) Post-emergence test experiment: Monocotyledonous and dicotyledonous weed seeds and main crop seeds (i.e. wheat, corn, rice, soybean, cotton, oilseed, millet and sorghum.) were put into a plastic pot loaded with soil. Then covered with 0.5-2 cm soil, the seeds were allowed to grow in good greenhouse environment. The test plants were treated at 2-3 leaf stage 2-3 weeks after sowing. The test compounds of the invention were dissolved with acetone respectively, then added with 80 tween and diluted by certain amount of water to certain concentration. The solution was sprayed to the plants with a sprayer. Then the plants were cultured for 3 weeks in the greenhouse.

[2] = system: Monocotyledonous and dicotyledonous weed; experiment: Post-emergence test experiment, weed control effect (Table 2); format: in vivo; set-up: key to weed control effect, Setaria viridis (level) / weed control effect, Rorippa indica (level) / weed control effect, Abutilon theophrasti (level) / weed control effect, Echinochloa crus-galli (level) / weed control effect, Digitaria sanguinalis (level): Level 10: completely dead; Level 9: above 90% growth inhibition rate; Level 8: above 80% growth inhibition rate; Level 7: above 70% growth inhibition rate; Level 6: above 60% growth inhibition rate; Level 5: above 50% growth inhibition rate; Level 4: above 30% growth inhibition rate; Level 3: above 20% growth inhibition rate; Level 2: above 10% growth inhibition rate; Level 1: above 1-10% growth inhibition rate; Level 0: no effect; conditions: 3 weeks after spraying, greenhouse
Protocol: as §1

SMILES | effect on crop, corn (level) ([1]; 120 g/ha) | effect on crop, rice (level) ([1]; 120 g/ha) | effect on crop, wheat (level) ([1]; 120 g/ha) | weed control effect, Abutilon theophrasti (level) ([2]; 120 g/ha) | weed control effect, Bidens pilosa (level) ([2]; 120 g/ha) | weed control effect, Digitaria sanguinalis (level) ([2]; 120 g/ha) | weed control effect, Echinochloa crus-galli (level) ([2]; 120 g/ha) | weed control effect, Rorippa indica (level) ([2]; 120 g/ha) | weed control effect, Setaria viridis (level) ([2]; 120 g/ha) | effect on crop, corn (level) ([1]; 60 g/ha) | effect on crop, rice (level) ([1]; 60 g/ha) | effect on crop, wheat (level) ([1]; 60 g/ha) | weed control effect, Abutilon theophrasti (level) ([2]; 60 g/ha) | weed control effect, Bidens pilosa (level) ([2]; 60 g/ha) | weed control effect, Digitaria sanguinalis (level) ([2]; 60 g/ha) | weed control effect, Echinochloa crus-galli (level) ([2]; 60 g/ha) | weed control effect, Rorippa indica (level) ([2]; 60 g/ha) | weed control effect, Setaria viridis (level) ([2]; 60 g/ha)
Cc1ccn(Cc2c(S(C)(=O)=O)ccc(C(=O)c3c(C4CC4)nn(C)c3OC(=O)c3cn(C)nc3C)c2Cl)n1 [Compound 09] | 0 | 1 (Level 1: above 1-10% growth inhibition rate) | 0 | 7 (Level 7: above 70% growth inhibition rate) | 9 (Level 9: above 90% growth inhibition rate) | 2 (Level 2: above 10% growth inhibition rate) | 9 (Level 9: above 90% growth inhibition rate) | 10 | 6 (Level 6: above 60% growth inhibition rate) | – | – | – | – | – | – | – | – | –
Cc1cc(C)n(Cc2c(S(C)(=O)=O)ccc(C(=O)c3c(C4CC4)nn(C)c3OC(=O)c3cn(C)nc3C)c2Cl)n1 [Compound 11] | 0 | 0 | 0 | 4 (Level 4: above 30% growth inhibition rate) | 6 (Level 6: above 60% growth inhibition rate) | 0 | 10 | 0 | 6 (Level 6: above 60% growth inhibition rate) | – | – | – | – | – | – | – | – | –
Cc1cnn(Cc2c(S(C)(=O)=O)ccc(C(=O)c3c(C4CC4)nn(C)c3OC(=O)c3cn(C)nc3C)c2Cl)c1 [Compound 12] | 0 | 0 | 0 | 6 (Level 6: above 60% growth inhibition rate) | 6 (Level 6: above 60% growth inhibition rate) | 0 | 10 | 4 (Level 4: above 30% growth inhibition rate) | 1 (Level 1: above 1-10% growth inhibition rate) | – | – | – | – | – | – | – | – | –
Cc1nn(C)cc1C(=O)Oc1c(C(=O)c2ccc(S(C)(=O)=O)c(Cn3cccn3)c2Cl)c(C2CC2)nn1C [Compound 13] | – | – | – | – | – | – | – | – | – | 0 | 1 (Level 1: above 1-10% growth inhibition rate) | 1 (Level 1: above 1-10% growth inhibition rate) | 10 | 8 (Level 8: above 80% growth inhibition rate) | 10 | 10 | 10 | 7 (Level 7: above 70% growth inhibition rate)
Cc1cnn(Cc2c(S(C)(=O)=O)ccc(C(=O)c3c(C)nn(C)c3OC(=O)c3cnn(C)c3)c2Cl)c1 [Compound 14] | 0 | 0 | 0 | 6 (Level 6: above 60% growth inhibition rate) | 6 (Level 6: above 60% growth inhibition rate) | 0 | 10 | 4 (Level 4: above 30% growth inhibition rate) | 1 (Level 1: above 1-10% growth inhibition rate) | – | – | – | – | – | – | – | – | –
Cc1ccn(Cc2c(S(C)(=O)=O)ccc(C(=O)c3c(C)nn(C)c3OC(=O)c3cnn(C)c3)c2Cl)n1 [Compound 15] | 0 | 1 (Level 1: above 1-10% growth inhibition rate) | 0 | 9 (Level 9: above 90% growth inhibition rate) | 8 (Level 8: above 80% growth inhibition rate) | 4 (Level 4: above 30% growth inhibition rate) | 10 | 10 | 5 (Level 5: above 50% growth inhibition rate) | – | – | – | – | – | – | – | – | –
Cc1nn(C)c(OC(=O)c2cnn(C)c2)c1C(=O)c1ccc(S(C)(=O)=O)c(Cn2cccn2)c1Cl [Compound 16] | – | – | – | – | – | – | – | – | – | 0 | 1 (Level 1: above 1-10% growth inhibition rate) | 1 (Level 1: above 1-10% growth inhibition rate) | 10 | 8 (Level 8: above 80% growth inhibition rate) | 10 | 10 | 10 | 8 (Level 8: above 80% growth inhibition rate)
